Assay results as given in article PMC2713788 (Experimental eye research, 2009).
No end group written: not given here.

Legend:
in vitro [1] = format: in vitro ADME; details: human, cells or culture medium, bradykinin present in media
in vitro [2] = format: in vitro ADME; details: human, cells or culture medium, bradykinin remaining in media

For RPPGFSPFR [bradykinin], which remaining at 0.5 h, 500 pg/ml (in vitro [1]) is on record?
Its remaining at 0.5 h, 500 pg/ml is 73 ± 3%.

And the remaining at 1 h, 500 pg/ml (in vitro [1])?
The remaining at 1 h, 500 pg/ml was 52 ± 3%.

What about the remaining at 0.5 h, 500 pg/ml (in vitro [2]) of the same sequence?
Its remaining at 0.5 h, 500 pg/ml is 51 ± 5%.

What about the remaining at 1 h, 500 pg/ml (in vitro [2]) of the same sequence?
The remaining at 1 h, 500 pg/ml was 15 ± 3%.

What about the remaining at 1.5 h, 500 pg/ml (in vitro [2]) of the same sequence?
The remaining at 1.5 h, 500 pg/ml was 9 ± 3%.
